Results reported in US20020001582A1, “Methods and compositions for inhibiting microbial growth” (priority 1999, published 2002).

Columns and labels:
Type in all cases: cell-based
[1] = test system: Rhizoctonia solani (IM085); experiment: Minimum effective treatment concentration, fungal plug in 1/5 potato dextrose broth
Protocol: (§1) Fungal cultures isolated from turfgrass were collected from different sources including B.C. Ministry of Agriculture, Fisheries and Food and ATCC.
(§2) ⅕ potato dextrose broth was prepared and autoclaved in Erlenmeyer flasks and allowed to cool. Different amounts of egg white lysozyme (Canadian Inovatech, Inc., B.C.) was weighed out and added directly into the flasks. Ten milliliters of broth was dispensed into sterile petri dishes.
(§3) A fungal square (“plug”) of each culture was cut and placed in/near the center of each plate. The petri dishes were then incubated at 22-25° C. During incubation, the petri dishes were evaluated individually by measuring the diameter of fungal growth.

[2] = test system: Rhizoctonia spp. (IM079); experiment: as above
Protocol: as §1, §2, §3

[3] = test system: Fusarium; experiment: Lysozyme against Fusarium inoculated from liquid broth
Protocol: PD broth was prepared and autoclaved in dilution bottles (100 ml) and allowed to cool. Various amounts of lysozyme were added into the bottles and dissolved. […] One ml of Fusarium broth was transferred into each dish and the contents were mixed well. The plates were incubated at room temperature for 2 weeks. The trial was carried out in triplicate and was repeated three times. Pictures of the fungi were taken daily using a digital camera and the data was transferred on to the computer and processed.

Question: “lysozyme: type c egg white lysozyme, enzyme of approximately 129 amino acids; commercially available from Canadian Inovatech, Inc.” was tested. Which Comment ([1]; 250 ppm, 13 day) did it give?
Answer: Fair-good

Question: What about the “Minimum effective treatment concentration of lysozyme” value ([1]; duration of trial 13 day) of the same substance?
Answer: 250 ppm

Question: What about the Comment ([2]; 150 ppm, 38 day) of the same substance?
Answer: Excellent

Question: What about the “Minimum effective treatment concentration of lysozyme” value ([2]; duration of trial 38 day) of the same substance?
Answer: 150 ppm

Question: What about the “inhibition against Fusarium” value ([3]; 100 ppm or lower) of the same substance?
Answer: not very effective

Question: What about the “inhibition against Fusarium” value ([3]; 250 ppm) of the same substance?
Answer: very good inhibition

Question: What about the “time for which growth of Fusarium is limited” value ([3]; 250 ppm) of the same substance?
Answer: two weeks
